Tested on: Culture A80789
Test: Antibiotic sensitivity disc test on the producing culture
Type: cell-based, Streptomyces hygroscopicus
Conditions: ISP No. 2 agar
Description: Resistance to antibiotics was measured by padding antibiotic sensitivity discs onto the surface of seeded ISP No. 2 agar plates. Resistance was scored as (+) when no zone of inhibition was observed and as (-) when a zone of inhibition was observed.

| Molecule | Resistance of culture to antibiotic (disc 10 mcg) | Resistance of culture to antibiotic (disc 30 mcg) | also measured |
| --- | --- | --- | --- |
| CO[C@H]1/C=C/O[C@@]2(C)Oc3c(C)c(O)c4c(O)c(c(/C=N/N5CCN(C)CC5)c(O)c4c3C2=O)NC(=O)/C(C)=C\C=C\[C@H](C)[C@H](O)[C@@H](C)[C@@H](O)[C@@H](C)[C@H](OC(C)=O)[C@@H]1C [rifampin] | – | – | Resistance of culture to antibiotic (disc 5 mcg): resistant |
| [H]/N=C(/N)N[C@H]1[C@H](O)[C@@H](O)[C@H](O[C@@H]2O[C@@H](C)[C@](O)(C=O)[C@H]2O[C@@H]2O[C@@H](CO)[C@H](O)[C@@H](O)[C@@H]2NC)[C@@H](N/C(N)=N\[H])[C@@H]1O [streptomycin] | sensitive | – | – |
| CN(C)[C@@H]1C(=O)C(C(N)=O)=C(O)[C@@]2(O)C(=O)C3=C(O)c4c(O)cccc4[C@@](C)(O)[C@H]3C[C@@H]12 [tetracycline] | – | sensitive | – |
| NC[C@H]1O[C@H](O[C@H]2[C@H](O)[C@@H](O[C@H]3O[C@H](CO)[C@@H](O)[C@H](N)[C@H]3O)[C@H](N)C[C@@H]2N)[C@H](N)C[C@@H]1O [tobramycin] | sensitive | – | – |
| CN[C@H](CC(C)C)C(=O)N[C@H]1C(=O)N[C@@H](CC(N)=O)C(=O)N[C@H]2C(=O)N[C@H]3C(=O)N[C@H](C(=O)N[C@H](C(=O)O)c4cc(O)cc(O)c4-c4cc3ccc4O)[C@H](O)c3ccc(c(Cl)c3)Oc3cc2cc(c3O[C@@H]2O[C@H](CO)[C@@H](O)[C@H](O)[C@H]2O[C@H]2C[C@](C)(N)[C@H](O)[C@H](C)O2)Oc2ccc(cc2Cl)[C@H]1O [vancomycin] | – | sensitive | – |
| gentamicin | sensitive | – | – |
| neomycin | – | sensitive | – |

From patent US5043353A, “A80789 polyether antibiotic” (Eli Lilly and Company, priority 1989, dated 1991)
